Data published in US10953042B2, “Vanadium insulin-mimetics, methods of preparation, and methods for treatment of diabetes” (The University of Trinidad and Tobago, priority 2017, dated 2021).
Read-outs that look alike come from different tables or passages of the source.

How the values were obtained:
[1] = tested on: STZ-induced diabetic rats; conditions: for blood glucose level: 75 mg/kgbw intraperitoneal once every five days
Protocol: Healthy adult male albino Rattus norvegicus Wistar rats, weighing 170-200 g were procured from Sri Raghavendra Enterprises, Bangalore, Karnataka, India. Studies were conducted in accordance with the guidance for the care and standard experimental animal ethical protocols. Animals were acclimated for a week, maintained at room temperature of 25±2° C. with 12-h dark-light cycle and given tap water and a standard rodent pellet diet ad libitum.
Six (6) groups with six rats each were used. Group I consisted of control animals and diabetes was induced in 12 hour fasted rats in Groups II-VI by a single intraperitoneal 60 mg/kgbw dose of STZ dissolved in freshly prepared 0.1 mol/L citrate buffer (pH 4.5). Blood samples obtained by sequential snipping of the tail and blood glucose levels measured using an ACCU-CHECK® glucometer on a daily basis. […] Group II became the positive control.
The dose-response of the drug was monitored for a period of 30 and 90 days using differential grades of drug at doses of 1, 10, 25, 50, 75, and 100 mg/kgbw administered once every five days. On the fifth day after the first administration, blood was collected and blood glucose levels measured using an ACCU-CHECK® glucometer. Subsequently each group was given its respective second and subsequent doses through intraperitoneal injection.
(§1) The following values were determined spectrophotometrically: (a) daily blood glucose levels (via Accu-check glucometer kit, Roche Diagnostics India); (b) hepatic glycogen (see Seifter et al., (1950) Arch Biochem 25(1):191-200); (c) glycosylated hemoglobin (see Sudhakar and Pattabiraman (1981) Clin Chim Acta 109:267-274); (d) blood urea nitrogen (BUN); (e) serum creatinine (see Hare (1950) Proc Soc Exp Biol Med 74:148-151); and (f) hepatic enzymes (AST, ALT) (see Reitman and Frankel (1957) Am J Clin Pathol 28:56-63).
(§2) Biostatistical analysis was conducted using SPSS 20.0 software. Analysis of variance (one-way ANOVA) was performed with the Tukey HSD post hoc test.

[2] = tested on: STZ induced diabetic mice
Protocol: Streptozotocin (STZ; 2-deoxy-2-(3-methyl-3-nitrosoureido)-D-glucopyranose), a diabetogenic agent having the ability to induce pancreatic β-cell toxicity, is one of the chemicals used worldwide to induce diabetes in a simple and convenient method.
Adult albino mice, Mus musculus, three months old, weighing 30±5 g were procured from Sri Raghavendra Enterprises, Bangalore and acclimatized to laboratory conditions (12:12 hr dark/light, 25±2° C.) for one week. During acclimatization and thereafter, mice were maintained on standard rodent pellet and tap water ad libitum in accordance with ethical guidelines for animal care and experimentation.
Six (6) groups with six mice each were used. […] Group II became the positive control. […] On the fifth day after the first administration, blood was collected by tail pricking and blood glucose levels measured using an ACCU-CHECK® glucometer on a daily basis. Subsequently each group was given its respective second and subsequent doses through intraperitoneal injection.

[3] = tested on: STZ-induced diabetic rats; conditions: for blood glucose levels: 100 mg/kgbw oral once every five days
Protocol: as §1, §2
The dose-response of the drug was monitored for a period of 30 and 90 days using drug doses of 100 and 200 mg/kgbw administered once every five days. Spectrophotometric measurements and statistical analysis were obtained as in Example 2.

[4] = free state; cited from earlier work

Molecule | blood glucose level ([1]; after 30 days) [mg/dL] | blood glucose level ([1]; three months (90 days), P<0.05) [mg/dL] | insulin levels ([1]; 75 mg/kgbw intraperitoneal, compared to the control (FIG. 24)) | glycogen level ([1]; 75 mg/kgbw intraperitoneal, day 30, hepatic glycogen) [mg/g tissue] | glycogen level ([1]; 75 mg/kgbw intraperitoneal, day 90, hepatic glycogen) [mg/g tissue] | hyperglycemic condition ([2]; 250 mg/kgbw intraperitoneal, 30 days, data not shown) | blood glucose level ([2]; 250 mg/kgbw intraperitoneal, multiple doses once every 5 days) | blood glucose level ([2]; the other doses (50, 150, 300 mg/kgbw) intraperitoneal) | blood glucose levels ([3]; day 30) [mg/dL] | blood glucose levels ([3]; day 90) [mg/dL] | glycogen levels ([3]; oral (FIG. 18)) | insulin levels ([3]; oral, compared to the control (FIG. 25)) | toxicity [4]
(Diaqua)(2,6-pyridine diacetyl-carboxylato)oxovanadium(IV) [Complex 1] | 135 | 118.7 | significantly reducing insulin levels as compared to the control | 2.01 | 2.00 | reduced the hyperglycemic condition in a steady state for a period of 30 days | stable and sustainable blood glucose level throughout the study | irregularity in maintaining the reduced levels | 108 | 102 | significant effect on increasing the glycogen levels | significant reduction in insulin levels as compared to the control | –
O=C(O)c1cccc(C(=O)O)n1 [dipicolinic acid, Pyridine-2,6-dicarboxylic acid] | – | – | – | – | – | – | – | – | – | – | – | – | nontoxic
